Laboratory results published in patent publication US10246442B2, “4-Aminoquinazolin compounds as prolyl hydroxylase inhibitors” (JANSSEN PHARMACEUTICA NV, priority 2011, dated 2019).

How the values were obtained:
PHD2181-417 = PHD2181-417 (Homo sapiens (Human), UniProt Q9GZT9); assay: PHD enzymatic assay ([14C]-succinic acid production); type: biochemical; conditions: purified PHD2181-417, HIF-1α peptide substrate, 30 min pre-incubation, average of results
Procedure: Expression and Purification of PHD2181-417
The human PHD2 expression construct containing amino acids 181-417 of GenBank Accession ID NM_022051 was cloned into a pBAD vector (Invitrogen), incorporating both an N-terminal histidine tag and a Smt3-tag, both of which are cleaved by Ulp1. Protein production was achieved by expression in BL21 cells grown in Terrific Broth containing 100 μg/ml ampicillin. Cell cultures were inoculated at 37° C. and grown to an OD600 of 0.8. Cultures were induced with 0.1% arabinose and grown overnight at 20° C. with continuous shaking at 225 rpm. Cells were then harvested by centrifugation and stored at −80° C. Cell pellets were suspended in Buffer A (50 mM Tris-HCl pH 7.2, 100 mM NaCl, 100 mM L-arginine, 1 mM TCEP, 0.05% (w/v) NP-40, 50 mM imidazole) followed by the addition of lysozyme and benzonase. Cells were lysed by sonication and the lysate was cleared by centrifugation (15,000 rpm, 90 min, 4° C.). The protein was purified by nickel affinity chromatography using a HisTrap Crude FF column (GE Healthcare). Samples were eluted in Buffer A with a 50-200 mM imidazole gradient. Cleavage of the Smt tag with Ulp1 protease was achieved via overnight incubation with dialyzing against Buffer A. The PHD2181-417 sample was then passed over a second HisTrap Crude FF column (GE Healthcare) to remove uncleaved protein. The flow-through was then dialyzed into 50 mM MES pH 6.0, 1 mM TCEP, 5 mM NaCl for ion exchange chromatography on a HiTrap SP Cation Exchange column (GE Healthcare). The PHD2181-417 protein was eluted with a 0-0.2 M NaCl gradient. Fractions were pooled for further purification by size exclusion chromatography over a Superdex 75 Size Exclusion Column (GE Healthcare). Final protein was concentrated to 4 mg/ml and dialyzed in 10 mM PIPES pH 7.0, 100 mM NaCl, 0.5 mM TCEP.
(10 μM, California Peptide Research Inc., Napa, Calif.), and [5-^14C]-2-oxoglutaric acid (50 mCi/mmol, Moravek Chemicals, Brea, Calif.) in reaction buffer (40 mM Tris-HCl, pH 7.5, 0.4 mg/ml catalase, 0.5 mM DTT, 1 mM ascorbate) for 10 minutes. Compounds were pre-incubated for 30 min before starting the reaction (all test compounds were dissolved at 10 mM in 100% DMSO (w/v) and were tested with final compound concentrations at 100 μM in 1% DMSO (w/v)). The reaction was stopped by addition of 50 μl of 70 mM H3PO4 and 50 μl of 500 mM NaH2PO4, pH 3.2. Detection of [^14C]-succinic acid was achieved by separating from [5-^14C]-2-oxoglutaric acid by incubating the reaction mixture with 100 μl of 0.16 M DNP prepared in 30% perchloric acid. Next, 50 μl of unlabeled 20 mM 2-oxoglutaric acid/20 mM succinic acid, serving as carrier for the radioactivity, was added to the mixture, and was allowed to proceed for 30 minutes at room temperature. The reaction was then incubated with 50 μl of 1 M 2-oxoglutaric acid for 30 additional minutes at room temperature to precipitate the excess DNP. The reaction was then centrifuged at 2800×g for 10 minutes at room temperature to separate [^14C]-succinic acid in the supernatant from the precipitated [^14C]-dinitrophenylhydrazone. Fractions of the supernatant (400 μI) were counted using a beta counter (Beckman Coulter, Fullerton, Calif.). Inhibition of PHD2181-417 activity was measured as a decrease in succinic acid production. The IC50 values were estimated by fitting the data to a three-parameter logistic function using GraphPad Prism, version 4.02 (Graph Pad Software, San Diego, Calif.).

[1] = test system: Erythropoietin secretion, Hep-3B cells; assay: Cellular assay: EPO secretion in Hep-3B cells; type: cell-based; conditions: Homo sapiens, Hep3B, 100 μM compound, 24 hours, percent of EPO secretion relative to assay control compound 7-[(4-Chloro-phenyl)-(5-methyl-isoxazol-3-ylamino)-methyl]-quinolin-8-ol, read-out: Cellular % EPO Stimulation
Procedure: Hep-3B cells (ATCC, Manassas, Va.) were plated in 96-well plates at 20,000 cells per well in 100 μl of DMEM containing 10% fetal bovine serum, 1% non-essential amino acids, 50 IU/mL of penicillin and 50 μg/mL of streptomycin (all cell culture reagents from Invitrogen, Carlsbad, Calif.). Twenty-four hours after plating, compounds were added and incubated for an additional 24 hours. All compounds were tested with final compound concentrations at 100 μM. Fifty microliters of the supernatant was then transferred to a human Hypoxia assay kit (Meso-Scale Discovery, Gaithersburg, Md.). Erythropoietin in the supernatant was detected according to the manufacturer's instructions as follows. EPO detection plates were blocked with 3% BSA in PBS overnight and 50 μl of the supernatant was incubated at room temperature in an orbital shaker for 2 h. Twenty-five microliters of 0.5 μg/ml anti-EPO detection antibody was added for 2 hours at room temperature in an orbital shaker. After 3 washes in PBS, 150 μl of 1× read buffer is added and the plate is then read on the MSD SECTOR instrument. Data was analyzed by determining the percent of EPO secretion in the presence of 100 μM compound relative to an assay control compound, 7-[(4-Chloro-phenyl)-(5-methyl-isoxazol-3-ylamino)-methyl]-quinolin-8-ol.

Chain of PHD2181-417 (Q9GZT9 181-417): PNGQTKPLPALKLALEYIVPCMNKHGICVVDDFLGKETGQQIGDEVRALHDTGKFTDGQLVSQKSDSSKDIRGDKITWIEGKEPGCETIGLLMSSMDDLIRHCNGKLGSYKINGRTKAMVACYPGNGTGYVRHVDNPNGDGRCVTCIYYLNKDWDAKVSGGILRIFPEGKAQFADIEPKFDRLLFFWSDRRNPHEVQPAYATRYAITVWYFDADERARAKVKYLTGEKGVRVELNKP

Q: Which IC50 (PHD2181-417; read-out: Enzyme pIC50 (converted)) does the source give for `COCC(C)Nc1nc(-n2cc(C(=O)O)cn2)nc2cc(F)c(Oc3c(C)cccc3C)cc12` (racemic) [Example 9, (rac)-1-[6-(2,6-Dimethyl-phenoxy)-7-fluoro-4-(2-methoxy-1-methyl-ethylamino)-quinazolin-2-yl]-1H-pyrazole-4-carboxylic acid] here?
A: The IC50 was 0.0794 µM.

Q: And the activation at 100 µM [1]?
A: The activation at 100 µM was 86%.

Q: With `Cc1cccc(C)c1Oc1cc2c(N)nc(-n3cc(C(=O)O)cn3)nc2cc1F` [Example 1, 1-[4-Amino-6-(2,6-dimethyl-phenoxy)-7-fluoro-quinazolin-2-yl]-1H-pyrazole-4-carboxylic acid] as the compound, how does the activation at 100 µM [1] read?
A: The activation at 100 µM was 51%.

Q: For `CNc1nc(-n2cc(C(=O)O)cn2)nc2cc(F)c(Oc3c(C)cccc3C)cc12` [Example 2, 1-[6-(2,6-Dimethyl-phenoxy)-7-fluoro-4-methylamino-quinazolin-2-yl]-1H-pyrazole-4-carboxylic acid], which “Enzyme pIC50” value (PHD2181-417) is on record?
A: The value was 7.2.

Q: What about the activation at 100 µM [1] of the same compound?
A: The activation at 100 µM was 10%.

Q: Which activation at 100 µM [1] does the source give for `Cc1cccc(C)c1Oc1cc2c(N(C)C)nc(-n3cc(C(=O)O)cn3)nc2cc1F` [Example 3, 1-[4-Dimethylamino-6-(2,6-dimethyl-phenoxy)-7-fluoro-quinazolin-2-yl]-1H-pyrazole-4-carboxylic acid] here?
A: Its activation at 100 µM is 68%.

Q: Which results are given for `Cc1cccc(C)c1Oc1cc2c(N3CCCCC3)nc(-n3cc(C(=O)O)cn3)nc2cc1F` [Example 4, 1-[6-(2,6-Dimethyl-phenoxy)-7-fluoro-4-piperidin-1-yl-quinazolin-2-yl]-1H-pyrazole-4-carboxylic acid]?
A: Enzyme pIC50 (PHD2181-417): 6.9; activation at 100 µM [1]: 17%

Q: `Cc1cccc(C)c1Oc1cc2c(N3CCCC3)nc(-n3cc(C(=O)O)cn3)nc2cc1F` [Example 5, 1-[6-(2,6-Dimethyl-phenoxy)-7-fluoro-4-pyrrolidin-1-yl-quinazolin-2-yl]-1H-pyrazole-4-carboxylic acid] was tested. Which “Enzyme pIC50” value (PHD2181-417) did it give?
A: The value was 7.4.

Q: And the activation at 100 µM [1]?
A: Its activation at 100 µM is 25%.

Q: Which “Enzyme pIC50” value (PHD2181-417) does the source give for `Cc1cccc(C)c1Oc1cc2c(Nc3ccccc3)nc(-n3cc(C(=O)O)cn3)nc2cc1F` [Example 6, 1-[6-(2,6-Dimethyl-phenoxy)-7-fluoro-4-phenylamino-quinazolin-2-yl]-1H-pyrazole-4-carboxylic acid] here?
A: The value was 7.4.

Q: What about the activation at 100 µM [1] of the same compound?
A: Its activation at 100 µM is 22%.

Q: `Cc1cccc(C)c1Oc1cc2c(Nc3ccccc3Cl)nc(-n3cc(C(=O)O)cn3)nc2cc1F` [Example 7, 1-[4-(2-Chloro-phenylamino)-6-(2,6-dimethyl-phenoxy)-7-fluoro-quinazolin-2-yl]-1H-pyrazole-4-carboxylic acid] was tested. Which activation at 100 µM [1] did it give?
A: Its activation at 100 µM is 13%.

Q: For `CCCNc1nc(-n2cc(C(=O)O)cn2)nc2cc(F)c(Oc3c(C)cccc3C)cc12` [Example 8, 1-[6-(2,6-Dimethyl-phenoxy)-7-fluoro-4-propylamino-quinazolin-2-yl]-1H-pyrazole-4-carboxylic acid], which “Enzyme pIC50” value (PHD2181-417) is on record?
A: The value was 7.2.

Q: And the activation at 100 µM [1]?
A: Its activation at 100 µM is 59%.

Q: `CCN(CC)CCNc1nc(-n2cc(C(=O)O)cn2)nc2cc(F)c(Oc3c(C)cccc3C)cc12` [Example 10, 1-[4-(2-Diethylamino-ethylamino)-6-(2,6-dimethyl-phenoxy)-7-fluoro-quinazolin-2-yl]-1H-pyrazole-4-carboxylic acid] was tested. Which “Enzyme pIC50” value (PHD2181-417) did it give?
A: Its value is 5.9.

Q: What about the activation at 100 µM [1] of the same compound?
A: Its activation at 100 µM is 13%.

Q: `Cc1cccc(C)c1Oc1cc2c(NCC3CC3)nc(-n3cc(C(=O)O)cn3)nc2cc1F` [Example 15, 1-((4-Cyclopropanemethylamino)-6-(2,6-dimethylphenoxy)-7-fluoroquinazolin-2-yl)-1H-pyrazole-4-carboxylic acid] was tested. Which activation at 100 µM [1] did it give?
A: Its activation at 100 µM is 64%.

Q: How did the activation at 100 µM [1] turn out when `Cc1cccc(C)c1CNc1nc(-n2cc(C(=O)O)cn2)nc2ccc(C3CCCCC3)cc12` [Example 23, 1-[6-Cyclohexyl-4-(2,6-dimethyl-benzylamino)-quinazolin-2-yl]-1H-pyrazole-4-carboxylic acid] was run?
A: The activation at 100 µM was 7%.

Q: With `CCN(CC)c1nc(-n2cc(C(=O)O)cn2)nc2cc(Cl)c(OC3CCCCC3)cc12` [Example 138, 1-(7-chloro-6-(cyclohexyloxy)-4-(diethylamino)quinazolin-2-yl)-1H-pyrazole-4-carboxylic acid] as the compound, how does the “Enzyme pIC50” value (PHD2181-417) read?
A: The value was 7.5.

Q: With `O=C(O)c1cnn(-c2nc(N3CCCC3)c3cc(OC4CCCCC4)c(Cl)cc3n2)c1` [Example 139, 1-(7-chloro-6-(cyclohexyloxy)-4-(pyrrolidin-1-yl)quinazolin-2-yl)-1H-pyrazole-4-carboxylic acid] as the compound, how does the “Enzyme pIC50” value (PHD2181-417) read?
A: Its value is 7.1.

Q: `O=C(O)c1cnn(-c2nc(NC3CC3)c3cc(OC4CCCCC4)c(Cl)cc3n2)c1` [Example 141, 1-(7-chloro-6-(cyclohexyloxy)-4-(cyclopropylamino)quinazolin-2-yl)-1H-pyrazole-4-carboxylic acid] was tested. Which “Enzyme pIC50” value (PHD2181-417) did it give?
A: The value was 7.0.

Q: How did the activation at 100 µM [1] turn out when `CCN(CC)c1nc(-n2cc(C(=O)O)cn2)nc2ccc(OC3CCCCC3)cc12` [Example 174, 1-(6-(cyclohexyloxy)-4-(diethylamino)quinazolin-2-yl)-1H-pyrazole-4-carboxylic acid] was run?
A: Its activation at 100 µM is 35%.

Q: `O=C(O)c1cnn(-c2nc(N3CCCC3)c3cc(OC4CCCCC4)ccc3n2)c1` [Example 175, 1-(6-(cyclohexyloxy)-4-(pyrrolidin-1-yl)quinazolin-2-yl)-1H-pyrazole-4-carboxylic acid] was tested. Which activation at 100 µM [1] did it give?
A: Its activation at 100 µM is 46%.

Q: `O=C(O)c1cnn(-c2nc(N3CCOCC3)c3cc(Cc4ccccc4)ccc3n2)c1` [Example 178, 1-(6-benzyl-4-morpholinoquinazolin-2-yl)-1H-pyrazole-4-carboxylic acid] was tested. Which “Enzyme pIC50” value (PHD2181-417) did it give?
A: The value was 6.5.

Q: `CN(C)c1nc(-n2cc(C(=O)O)cn2)nc2ccc(Cc3ccccc3)cc12` [Example 179, 1-(6-benzyl-4-(dimethylamino)quinazolin-2-yl)-1H-pyrazole-4-carboxylic acid] was tested. Which “Enzyme pIC50” value (PHD2181-417) did it give?
A: The value was 7.1.

Q: `CCN(CC)c1nc(-n2cc(C(=O)O)cn2)nc2ccc(Cc3ccccc3)cc12` [Example 180, 1-(6-benzyl-4-(diethylamino)quinazolin-2-yl)-1H-pyrazole-4-carboxylic acid] was tested. Which “Enzyme pIC50” value (PHD2181-417) did it give?
A: The value was 7.1.

Q: With `O=C(O)c1cnn(-c2nc(N3CCCC3)c3cc(Cc4ccccc4)ccc3n2)c1` [Example 181, 1-(6-benzyl-4-(pyrrolidin-1-yl)quinazolin-2-yl)-1H-pyrazole-4-carboxylic acid] as the compound, how does the “Enzyme pIC50” value (PHD2181-417) read?
A: The value was 7.1.

Q: `O=C(O)c1cnn(-c2nc(NC3CC3)c3cc(Cc4ccccc4)ccc3n2)c1` [Example 182, 1-(6-benzyl-4-(cyclopropylamino)quinazolin-2-yl)-1H-pyrazole-4-carboxylic acid] was tested. Which “Enzyme pIC50” value (PHD2181-417) did it give?
A: Its value is 7.1.

Q: Which “Enzyme pIC50” value (PHD2181-417) does the source give for `CCN(C)c1nc(-n2cc(C(=O)O)cn2)nc2ccc(Cc3ccccc3)cc12` [Example 183, 1-(6-benzyl-4-(ethyl(methyl)amino)quinazolin-2-yl)-1H-pyrazole-4-carboxylic acid] here?
A: Its value is 7.2.
